For one experiment, the target named is T1, wild type EGFR TKD (Homo sapiens, UniProt P00533).
T1 construct: hexa-histidine (6x His) (N); made in house; host or cells: Spodoptera frugiperda Sf9 (baculovirus, pFastBac1)
The experiment is described as follows: Michaelis-Menten kinetics (KM,ATP, KM,pept). In kind it is biochemical.

In a further experiment the target is T2, EGFR TKD ΔL747-A750InsP (Homo sapiens, UniProt P00533, A750P/DEL747-749).
T2 construct: 6x His (N); made in house; host or cells: Spodoptera frugiperda Sf9 (baculovirus)
The experiment is described as follows: Michaelis-Menten kinetics (KM,ATP, KM,pept). It counts as biochemical.

The next experiment has as its target T3, EGFR TKD L747P (Homo sapiens, UniProt P00533, L747P).
T3 construct: 6x His (N); made in house; host or cells: Spodoptera frugiperda Sf9 (baculovirus)
The experiment is described as follows: Michaelis-Menten kinetics (KM,ATP, KM,pept). It counts as biochemical.

Another experiment concerns the target T4, EGFR TKD ΔE746-A750 (Homo sapiens, UniProt P00533, DEL746-750).
T4 construct: 6x His (N); made in house; host or cells: Spodoptera frugiperda Sf9 (baculovirus)
The experiment is described as follows: Michaelis-Menten kinetics (KM,ATP, KM,pept). It counts as biochemical. To be noted: read-out: Best fit KM,ATP; individual experiments (Fig. 3b data).

In the next experiment the target is T5, EGFR TKD ΔE746-T751InsA (Homo sapiens, UniProt P00533, DEL746-750/T751A).
T5 construct: 6x His (N); made in house; host or cells: Spodoptera frugiperda Sf9 (baculovirus)
The experiment is described as follows: Michaelis-Menten kinetics (KM,ATP, KM,pept). It counts as biochemical.

The next experiment has as its target T6, EGFR TKD ΔL747-T751InsP (Homo sapiens, UniProt P00533, DEL747-750/T751P).
T6 construct: 6x His (N); made in house; host or cells: Spodoptera frugiperda Sf9 (baculovirus)
The experiment in a line: Michaelis-Menten kinetics (KM,ATP, KM,pept). It counts as biochemical. The settings on record: read-out: Best fit KM,ATP; individual experiments (Fig. 3b data).

Another experiment deals with T7, EGFR TKD ΔL747-P753InsS (Homo sapiens, UniProt P00533, DEL747-752/P753S).
T7 construct: 6x His (N); made in house; host or cells: Spodoptera frugiperda Sf9 (baculovirus)
The experiment is described as follows: Michaelis-Menten kinetics (KM,ATP, KM,pept). In kind it is biochemical.

A further experiment concerns the target T8, EGFR TKD ΔS752-I759 (Homo sapiens, UniProt P00533, DEL752-759).
T8 construct: 6x His (N); made in house; host or cells: Spodoptera frugiperda Sf9 (baculovirus)
The experiment in a line: Michaelis-Menten kinetics (KM,ATP, KM,pept). In kind it is biochemical.

The next experiment concerns the target T9, EGFR TKD L858R (Homo sapiens, UniProt P00533, L858R).
T9 construct: 6x His (N); made in house; host or cells: Spodoptera frugiperda Sf9 (baculovirus)
The experiment is described as follows: Michaelis-Menten kinetics (KM,ATP, KM,pept). In kind it is biochemical.

A further experiment has as its target T10, EGFR TKD L858R/T790M (Homo sapiens, UniProt P00533, L858R/T790M).
T10 construct: 6x His (N); made in house; host or cells: Spodoptera frugiperda Sf9 (baculovirus)
The experiment is described as follows: Michaelis-Menten kinetics (KM,ATP, KM,pept). In kind it is biochemical. The settings on record: read-out: Best fit KM,ATP; individual experiments (Fig. 3b data).

Another experiment deals with EGFR TKD ΔL747-E749 (Homo sapiens, UniProt P00533, DEL747-749). The experiment in a line: Michaelis-Menten kinetics (KM,ATP).
Where [1] appears, read: read-out: Best fit KM,ATP, individual experiments (Fig. 3b data).
Setting [2] is: read-out: KM, ATP, 20 μM peptide, mean ± SD.

“And” between values parts separate entries of the source, which are not always exact repeats. Identical values can stand only once. Like-named read-outs stand apart in the source and are kept apart here.

One may read the Km as the substrate concentration at which the rate is half of its maximum. As for `Nc1ncnc2c1ncn2[C@@H]1O[C@H](COP(=O)(O)OP(=O)(O)OP(=O)(O)O)[C@@H](O)[C@H]1O` [ATP], the Km at wild type EGFR TKD (setting [1]) is 9.32 µM and 7.22 µM and 7.98 µM and 15.8 µM and 15.6 µM and 15 µM and 12.6 µM and 10.1 µM; on wild type EGFR TKD (setting [2]) it was 12 ± 3 µM; at EGFR TKD ΔL747-A750InsP (setting [1]) it was 23.6 µM and 15.4 µM and 18.7 µM and 31.1 µM and 32.5 µM and 29.2 µM and 22.7 µM and 20.1 µM and 16.8 µM; on EGFR TKD ΔL747-A750InsP (setting [2]) it was 23 ± 6 µM; on EGFR TKD L747P (setting [1]), 16.8 µM and 14.6 µM and 12.5 µM and 19.3 µM and 21.2 µM and 21.7 µM and 28.8 µM and 29.4 µM and 26 µM; at EGFR TKD L747P (setting [2]) it was 21 ± 6 µM. For the same molecule, the Km on EGFR TKD ΔE746-A750 was 194 µM and 149 µM and 116 µM and 126 µM; at EGFR TKD ΔE746-T751InsA (setting [1]), 216 µM and 285 µM and 228 µM and 263 µM and 287 µM and 318 µM; on EGFR TKD ΔE746-T751InsA (setting [2]) it was 240 ± 59 µM; on EGFR TKD ΔL747-T751InsP, 93.5 µM and 183 µM and 100 µM and 217 µM and 135 µM and 204 µM and 224 µM; on EGFR TKD ΔL747-P753InsS (setting [1]), 115 µM and 93.7 µM and 90.2 µM and 86 µM and 70.3 µM and 87.6 µM and 138 µM and 132 µM and 99.9 µM; on EGFR TKD ΔL747-P753InsS (setting [2]), 101 ± 22 µM. Further, the Km on EGFR TKD ΔS752-I759 (setting [1]) is 124 µM (2×) and 122 µM and 82.8 µM (2×) and 79.2 µM and 65.9 µM and 75.6 µM and 64.3 µM; at EGFR TKD ΔS752-I759 (setting [2]) it was 91 ± 25 µM; on EGFR TKD L858R (setting [1]), 89.3 µM and 87.4 µM and 87.6 µM and 63.1 µM and 77.3 µM and 74.5 µM and 60.1 µM and 51.1 µM; at EGFR TKD L858R (setting [2]) it was 74 ± 14 µM; on EGFR TKD L858R/T790M it was 48 µM and 47.5 µM and 38.9 µM and 35.3 µM and 47.4 µM and 56.3 µM and 50.7 µM; at EGFR TKD ΔL747-E749 (setting [1]), 10.3 µM and 8.84 µM and 8.25 µM and 18.4 µM and 22.3 µM and 26.3 µM and 7.28 µM and 5.87 µM and 5.78 µM. Further, on EGFR TKD ΔL747-E749 (setting [2]), the Km came to 13 ± 8 µM. Besides, on EGFR TKD L747P, the “KM, ATP for L747P smaller than for ΔE746-A750” value was determined as 7.5 fold.

Values taken from publication PMC9649653, “Biochemical and structural basis for differential inhibitor sensitivity of EGFR with distinct exon 19 mutations” (Nature Communications, 2022).
